Data taken from US5108896A, “Simultaneous immunoassay of two analytes using dual enzyme labelled antibodies” (priority 1986, dated 1992).
Read-outs that look alike come from different tables or passages of the source.

Target: β-galactosidase (Escherichia coli, UniProt P00722)
Assay: Kinetics of β-galactosidase with p-NPBG, with and without diethanolamine
Assay type: biochemical
Settings: for Km: read-out: Michaelis constant (Km) of β-galactosidase for p-NPBG
Protocol: β-galactosidase has a pH optimum of 7.4 for p-nitrophenyl-β-D-galactoside (p-NPBG), although in a single assay format using normal substrate concentrations (up to approximately 5 mM), the pH can be raised to 8.6 with only a slight loss (approximately 20%) of activity. […] We have also found, however, that by increasing the concentration of p-NPBG at pH 8.6, even in the presence of about 1M diethanolamine, substantial activity of β-galactosidase can be achieved. Substantial activity of β-galactosidase is also obtained if the same reaction medium is used but with p-NPBG replaced by o-NPBG.

β-galactosidase, sequence (P00722 2-1024): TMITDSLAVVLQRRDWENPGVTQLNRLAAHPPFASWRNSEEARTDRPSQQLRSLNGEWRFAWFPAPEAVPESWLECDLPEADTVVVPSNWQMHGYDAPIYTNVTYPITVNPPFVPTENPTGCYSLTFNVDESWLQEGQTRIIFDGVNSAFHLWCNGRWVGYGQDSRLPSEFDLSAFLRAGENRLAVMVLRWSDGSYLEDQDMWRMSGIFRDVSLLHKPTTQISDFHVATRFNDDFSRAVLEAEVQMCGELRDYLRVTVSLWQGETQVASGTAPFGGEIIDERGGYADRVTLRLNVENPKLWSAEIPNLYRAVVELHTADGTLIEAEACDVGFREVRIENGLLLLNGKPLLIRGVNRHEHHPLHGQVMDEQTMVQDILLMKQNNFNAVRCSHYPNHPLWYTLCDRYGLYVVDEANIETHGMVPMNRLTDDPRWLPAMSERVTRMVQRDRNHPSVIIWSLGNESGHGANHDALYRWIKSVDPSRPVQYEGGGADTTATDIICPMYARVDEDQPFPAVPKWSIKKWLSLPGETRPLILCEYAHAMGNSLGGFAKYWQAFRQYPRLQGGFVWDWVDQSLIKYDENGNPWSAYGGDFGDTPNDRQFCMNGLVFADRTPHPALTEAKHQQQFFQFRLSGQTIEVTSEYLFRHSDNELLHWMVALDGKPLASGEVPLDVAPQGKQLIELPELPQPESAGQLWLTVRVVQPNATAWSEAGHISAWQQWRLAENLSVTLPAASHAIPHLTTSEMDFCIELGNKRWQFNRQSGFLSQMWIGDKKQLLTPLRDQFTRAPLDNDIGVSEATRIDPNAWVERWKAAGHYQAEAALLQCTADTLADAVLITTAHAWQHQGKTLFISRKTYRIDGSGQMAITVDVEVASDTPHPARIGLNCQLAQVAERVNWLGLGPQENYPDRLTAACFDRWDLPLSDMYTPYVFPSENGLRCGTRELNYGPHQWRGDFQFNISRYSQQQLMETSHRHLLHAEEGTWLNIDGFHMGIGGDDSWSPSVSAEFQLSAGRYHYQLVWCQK

Row | Compound | Km (in the presence of 1M diethanolamine (competitive inhibition)) [mM] | Km (without diethanolamine) [mM] | activity of β-galactosidase (inhibition by diethanolamine) (about 1M diethanolamine, pH 8.6, p-NPBG at normal substrate concentrations (up to approximately 5 mM))
1 | O=[N+]([O-])c1ccc(O[C@@H]2O[C@H](CO)[C@H](O)[C@H](O)[C@H]2O)cc1 [p-NPBG, p-nitrophenyl-β-D-galactoside] | 21 | 0.066 | –
2 | OCCNCCO [diethanolamine] | – | – | almost totally abolished
